From patent US20230092679A1, “MCL-1 INHIBITOR ANTIBODY-DRUG CONJUGATES AND METHODS OF USE” (NOVARTIS AG, priority 2019, published 2023)
Read-outs that look alike come from different tables or passages of the source.

Assays:
Assay type in all cases: cell-based
A4-Fuk = assay: CellTiter-Glo proliferation assay (Example 6); set-up: key: **: tested but curve did not converge; details: CD38 Mcl-1 ADCs and payload P1, 5 days
Experimental: (§1) Mcl-1 ADCs were tested on nine endogenous cancer cell lines and one isogenic cell line engineered to overexpress a target of interest. Six targets were assessed: HER2, BCMA, CD38, CD48, CD79b, and CD33.
(§2) Cell lines • HER2: HCC1954 (ATCC No. CRL-2338 cultured in RPMI-1640+10% FBS) and HCC2218 (ATCC No. CRL-2343 cultured in RPMI-1640+10% FBS). • BCMA: NCI-H929 (ATCC No. CRL-9068 cultured in RPMI-1640+10% FBS+0.05 mM 2-mercaptoethanol). • CD38: A4-Fuk (JCRB No. JCRB0097 cultured in RPMI-1640+10% FBS) and KMS-21 BM (JCRB No. JCRB1185 cultured in RPMI-1640+10% FBS). • CD48: NCI-H929 (ATCC No. CRL-9068 cultured in RPMI-1640+10% FBS+0.05 mM 2-mercaptoethanol), OPM-2 (DSMZ No. ACC-50 cultured in RPMI-1640+10% FBS) and AMO1 (DSMZ No. ACC-538 cultured in RPMI-1640+20% FBS). • CD79b: RS4;11 (ATCC No. CRL-1873 cultured in RPMI-1640+10% FBS). • CD33: MOLM-13 (DSMZ No. ACC-554 cultured in RPMI-1640+10% FBS) and an isogenic cell line, AMO1-CD33 clone D2. AMO1 cell line was transfected to generate a stable AMO1 cell line expressing the exogenous protein of interest, CD33, AMO1-CD33 clone D2 (cultured in RPMI-1640+20% FBS).
(§3) The ability of Mcl-1 ADCs to inhibit cell proliferation and survival was assessed using a Promega CellTiter-Glo® proliferation assay. Cell lines were cultured in media optimal for their growth at 5% CO2, 37° C. in a tissue culture incubator. Prior to seeding for the proliferation assay, the cells were split at least 2 days before the assay to ensure optimal growth density. On the day of seeding, adherent cells were lifted off tissue culture flasks using 0.25% trypsin. Cell viability and cell density were determined using a cell counter (Vi-Cell XR Cell Viability Analyzer, Beckman Coulter). […] Cells were seeded at a density of 1,000 cells per well in 45 μl of standard growth media. Plates were incubated at 5% CO2, 37° C. overnight in a tissue culture incubator. The next day, free Mcl-1 payload (P1), targeting Mcl-1 ADCs, and non-targeting isotype ADCs were prepared at 10× in standard growth media. The prepared drug treatments were then added to the cells resulting in final concentrations of 0.0005-500 nM and a final volume of 50 μl per well. Each drug concentration was tested in quadruplets. Plates were incubated at 5% CO2, 37° C. for 5 days in a tissue culture incubator, after which cell viability was assessed through the addition of 25 μl of CellTiter Glo® (Promega, Cat. No. G7573), a reagent which lyses cells and measures total adenosine triphosphate (ATP) content. Plates were incubated at room temperature for 10 minutes to stabilize luminescent signals prior to reading using a luminescence reader (EnVision Multilabel Plate Reader, PerkinElmer). […]

KMS-21 BM = assay: CellTiter-Glo proliferation assay (Example 6); set-up: key: **: tested but curve did not converge; details: CD38 Mcl-1 ADCs and payload P1, 5 days
Experimental: as §1, §2, §3

HCC1954 = assay: CellTiter-Glo proliferation assay (Example 6); details: HER2 Mcl-1 ADCs and payload P1, 5 days
Experimental: as §1, §2
(§4) The ability of Mcl-1 ADCs to inhibit cell proliferation and survival was assessed using a Promega CellTiter-Glo® proliferation assay. Cell lines were cultured in media optimal for their growth at 5% CO2, 37° C. in a tissue culture incubator. Prior to seeding for the proliferation assay, the cells were split at least 2 days before the assay to ensure optimal growth density. On the day of seeding, adherent cells were lifted off tissue culture flasks using 0.25% trypsin. Cell viability and cell density were determined using a cell counter (Vi-Cell XR Cell Viability Analyzer, Beckman Coulter). […] Cells were seeded at a density of 1,000 cells per well in 45 μl of standard growth media. Plates were incubated at 5% CO2, 37° C. overnight in a tissue culture incubator. The next day, free Mcl-1 payload (P1), targeting Mcl-1 ADCs, and non-targeting isotype ADCs were prepared at 10× in standard growth media. The prepared drug treatments were then added to the cells resulting in final concentrations of 0.0005-500 nM and a final volume of 50 μl per well. Each drug concentration was tested in quadruplets. Plates were incubated at 5% CO2, 37° C. for 5 days in a tissue culture incubator, after which cell viability was assessed through the addition of 25 μl of CellTiter Glo® (Promega, Cat. No. G7573), a reagent which lyses cells and measures total adenosine triphosphate (ATP) content. Plates were incubated at room temperature for 10 minutes to stabilize luminescent signals prior to reading using a luminescence reader (EnVision Multilabel Plate Reader, PerkinElmer). To evaluate the effect of the drug treatments, luminescent counts from wells containing untreated cells (100% viability) were used to normalize treated samples. A variable slope model was applied to fit a nonlinear regression curve to the data in GraphPad PRISM version 7.02 software. IC50 and Amax values were extrapolated from the resultant curves.

HCC2218 = assay: CellTiter-Glo proliferation assay (Example 6); details: HER2 Mcl-1 ADCs and payload P1, 5 days
Experimental: as §1, §2, §4

MOLM-13 = assay: CellTiter-Glo proliferation assay (Example 6); details: CD33 Mcl-1 ADCs and payload P1, 5 days
Experimental: as §1, §2, §4

NCI-H929 = assay: CellTiter-Glo proliferation assay (Example 6); details: for Amax H929: in %; for IC50: Homo sapiens, NCI-H929, 120 h
Experimental: as §1, §2, §4

OPM-2 = assay: CellTiter-Glo proliferation assay (Example 6); details: CD48 Mcl-1 ADCs and payload P1, 5 days
Experimental: as §1, §2, §4

RS4;11 = assay: CellTiter-Glo proliferation assay (Example 6); details: CD79b Mcl-1 ADCs and payload P1, 5 days
Experimental: as §1, §2, §4

[1] = system: representative cancer cell lines; assay: CellTiter-Glo proliferation assay (Example 6), summary over the cell lines; details: 120 h, 5 days, read-out: IC50 values (range over cell lines)
Experimental: Mcl-1 ADCs were tested on nine endogenous cancer cell lines and one isogenic cell line engineered to overexpress a target of interest. Six targets were assessed: HER2, BCMA, CD38, CD48, CD79b, and CD33. […]
The ability of Mcl-1 ADCs to inhibit cell proliferation and survival was assessed using a Promega CellTiter-Glo® proliferation assay. […] Cell viability and cell density were determined using a cell counter (Vi-Cell XR Cell Viability Analyzer, Beckman Coulter). […] Plates were incubated at 5% CO2, 37° C. for 5 days in a tissue culture incubator, after which cell viability was assessed through the addition of 25 μl of CellTiter Glo® (Promega, Cat. No. G7573), a reagent which lyses cells and measures total adenosine triphosphate (ATP) content. Plates were incubated at room temperature for 10 minutes to stabilize luminescent signals prior to reading using a luminescence reader (EnVision Multilabel Plate Reader, PerkinElmer). […]

kasumi1 = assay: In vitro ADC activity, AML cell lines, CellTiter-Glo (Example 20); details: kasumi1, 5 days
m07e = assay: as above; details: 5 days
nb4 = assay: as above; details: nb4, 5 days
ociaml3 = assay: as above; details: ociaml3, 5 days
ocim1 = assay: as above; details: ocim1, 5 days
p31fuj = assay: as above; details: 5 days
tf1 = assay: as above; details: tf1, 5 days
[2] = BCMA Mcl-1 ADCs (Table 29) and payload P1, 5 days
[3] = CD48 Mcl-1 ADCs (Table 25) and payload P1, 5 days

IC50 (HCC1954; Homo sapiens, HCC1954, 120 h): 63.5 nM
IC50 (HCC2218; Homo sapiens, HCC2218, 120 h): 14.1 nM
IC50 (MOLM-13; Homo sapiens, MOLM-13, 120 h, read-out: IC50 (nM) MOLM13): 2.44 nM
IC50 (NCI-H929; [2]): 5.61 nM
IC50 (NCI-H929; [3]): 0.394 nM
IC50 (RS4;11; Homo sapiens, RS4-11, 120 h, read-out: IC50 (nM) RS, 411): 0.299 nM
IC50 ([1]; HER2-positive cancer cell lines): 10 to 60 nM
IC50 ([1]; representative cancer cell lines except HER2-positive): 0.038 to 5.6 nM
Structure (SMILES): COc1ccccc1-c1nccc(COc2ccccc2C[C@@H](Oc2ncnc3sc(-c4ccc(F)cc4)c(-c4ccc(OCCN5CCN(C)CC5)c(Cl)c4C)c23)C(=O)O)n1 [P1, (2R)-2-[5-[3-chloro-2-methyl-4-[2-(4-methylpiperazin-1-yl)ethoxy]phenyl]-6-(4-fluorophenyl)thieno[2,3-d]pyrimidin-4-yl]oxy-3-[2-[[2-(2-methoxyphenyl)pyrimidin-4-yl]methoxy]phenyl]propanoic acid]
Amax A4FUK (A4-Fuk): **
IC50 (nM) A4FUK (A4-Fuk): **
Amax KMS21 BM (KMS-21 BM): **
IC50 (nM) KMS21 BM (KMS-21 BM): **
Amax HCC1954 (HCC1954; unit assumed): 64.8%
Amax HCC2218 (HCC2218; in % (unit assumed)): 100.40
Amax MOLM13 (MOLM-13): 128.80
Amax H929 (NCI-H929; [2]): 89.16
Amax H929 (NCI-H929; [3]): 25.79
Amax OPM2 (OPM-2): 22.97
IC50 (OPM-2; Homo sapiens, OPM-2, 120 h, read-out: IC50 (nM) OPM2): 0.136 nM
Amax RS; 411 (RS4;11): 132.40
GI50 (kasumi1; Homo sapiens, Kasumi 1, 120 h): 37 nM
Amax (kasumi1; in % (unit assumed)): −87
Amax (m07e; in % (unit assumed)): −74
GI50 (m07e; M-07e, 120 h): 94 nM
GI50 (nb4; Homo sapiens, NB-4, 120 h): 3 nM
Amax (nb4; in % (unit assumed)): −62
GI50 (ociaml3; Homo sapiens, OCI-AML-3, 120 h): 138 nM
Amax (ociaml3; unit assumed): 1%
GI50 (ocim1; OCI-M1, 120 h): > 10000 nM
Amax (ocim1; unit assumed): 86%
Amax (p31fuj; in % (unit assumed)): −73
GI50 (p31fuj; Homo sapiens, P31-FUJ, 120 h): 116 nM
GI50 (tf1; Homo sapiens, TF-1, 120 h): 239 nM
Amax (tf1; unit assumed): 10%
